# Measured values as given in US11459570B2, “Transgenic mouse expressing amyloid precursor protein that has olfactory neuron degeneration” (The General Hospital Corporation, priority 2014, dated 2022).
# What was measured:
# MDA5 and PKR = experiment: Western blots of type I interferon-stimulated genes in differentiated ReNVM cells after PolyIC transfection; type: cell-based, human; settings: western blot, 24 hour post transfection with PolyIC
# Protocol: (§1) FIGS. 12A-G. dsRNA induces a Type I interferon response and is sufficient to induced neurodegeneration in human neurons. A-E) Representative transmitted light images of differentiated ReNVM neurons transfected with increasing doses of PolyIC, a dsRNA mimetic, showing a dose-dependent loss of neurons after 48 hours.
# (§2) Cytoplasmic dsRNA is sensed by three different proteins, PKR, MDA5, and RIG-I, that are components of the innate immune system. Engagement of each protein by dsRNA induces interferon signaling and neurodegeneration. […] To determine if cytoplasmic dsRNA was sufficient to mediate neurodegeneration in a human neurons, we transfected neuronal differentiated ReNcell VM cells, a human neural cell line derived from ventral mesencephalon, with escalating doses of poly IC (which mimics a GC dinucleotide repeat).
# [1] = test system: neuronal differentiated ReNcell VM cells; experiment: Viability of differentiated ReNcell VM neurons transfected with poly IC (Celltiter-Glo); type: cell-based, human; settings: escalating doses of poly IC, after 2 days (48 hours) in culture
# Protocol: as §1, §2
# OSNs = settings: mice, intranasal instillation; cited from earlier work
# cortical neurons = settings: rats; cited from earlier work
substance,measurement,setting,value
polyinosinic-polycytidylic acid [poly IC],"protein expression of type I interferon-stimulated genes (MDA5, PKR)",MDA5 and PKR,massive induction of MDA5 and PKR
same,"protein expression of type I interferon-stimulated genes (MDA5, PKR)",MDA5 and PKR; listed as PolyIC,elevated protein expression of type I interferon-stimulated genes
same,viability of ReNVM neurons relative to mock-transfected neurons,[1],dose-dependent reduction in their viability
same,viability of ReNVM neurons relative to mock-transfected neurons,[1]; listed as PolyIC,dose-dependent loss in cell viability
same,degeneration of OSNs,OSNs,causes degeneration
same,degeneration of cortical neurons,cortical neurons,causes degeneration
